Read-outs that look alike come from different tables or passages of the source.
Key:
C. glabrata = assay: Antifungal test, fungal growth; format: cell-based; conditions: increasing toxin concentration up to 64 µg-ml^-1, 24 and 48 hours
Method: (§1) A possible antimicrobial and antifungal activity of PA1b was next tested on four bacterial and three fungal species. The experiments were done using an increasing toxin concentration, up to 64 µg-ml^-1.

C. albicans = assay: Antifungal test, fungal growth; format: cell-based; conditions: increasing toxin concentration up to 64 µg-ml^-1, 24 and 48 hours
Method: as §1

A. famigatus = assay: Antifungal test, fungal growth; format: cell-based; conditions: increasing toxin concentration up to 64 µg-ml^-1, 24 and 48 hours
Method: as §1

Trichogramma pretiosum = assay: Trichogramma development from eggs to adults on artificial diet with toxin; format: in vivo; conditions: PA1b added to artificial diet; no difference in developmental times compared to control
Method: Trichogramma pretiosium. T191 (Hymenoptera) were grown using the artificial diet described in Grenier et al. ([1998]). The toxin was incorporated into the diet, and the development of insects was monitored from eggs to adults.
(§2) All toxicity assays were carried out using a mixture of PA1b isoforms (98% purity by HPLC). All tests were performed on at least 30 insects for assays and for control test (without toxin), except for the three aphid species (50 insects) and for Trichogramma (more than 300 eggs by assays). When adults were used, the insects were synchronized at the imaginal molt. The statistical analyses were performed using the JMP software (SAS, Grégy-sur-Yerres FRA).

Tribolium castaneum = assay: Red flour beetle adult toxicity test, toxin mixed into diet; format: in vivo; conditions: 1000 µg per g of food, feeding for 15 days
Method: The red flour beetle Tribolium castaneum (Coleoptera), was provided by François Bonneton (Centre de Génétique Moléculaire Cellulaire, Lyon, France). Tests were performed on adults by mixing the toxin into the diet (wheat flour 95%, yeast extract 5%).
as §2

[1] = target: PA1b binding protein on membrane extracts; assay: 125I-PA1b binding (competition) on insect membrane extracts; parameters: species or system Aphis gossypii; conditions: A. gossypii membrane extracts; competition with purified 3741 isoform
Method: (§3) The isolation of membrane proteins for binding studies was performed as described by Gressent et al. ([2003]). For PA1b degradation tests, insect extracts were prepared as follows, 1 g of insects were ground with a mortar and pestle in liquid nitrogen. The resulting powder was resuspended in 2 ml of extraction buffer (20 mM Tris-HCl pH 8; 0.25 M sucrose; 2 mM MgCl2). The slurry was centrifuged for 2 min at 1000 g, and the supernatant was stored at -2O°C until required. All the operations were performed at 4°C.
(§4) The peptidic toxin PA1b-3471 isoform was labelled with I^125 to a specific radioactivity of about 900 Ci.mmor^-1, and then used for binding studies with membrane extracts, according to Gressent et al. ([2003]).
(§5) PA1b binding activity was present in all insect species, except for the resistant weevil strains and the pea specific pest Bruchus pisorum, regardless of the sensitivity or insensitivity of these insects to PA1b toxicity, as evaluated from our insect bioassays. […] The relative abundance of the binding sites was also slightly different in this group of species, varying from 10 pmol/mg of protein for T. pretiosum to a maximum of 79 pmol/mg of protein for M. persicae.

[2] = target: PA1b binding protein on membrane extracts; assay: as above; parameters: species or system Bruchus pisorum; conditions: B. pisorum membrane extracts; competition with purified 3741 isoform
Method: as §3, §4, §5

[3] = target: PA1b binding protein on membrane extracts; assay: as above; parameters: species or system Ephestia kuehniella; conditions: E. kuehniella membrane extracts; competition with purified 3741 isoform
Method: as §3, §4, §5

[4] = target: PA1b binding protein on membrane extracts; assay: as above; parameters: species or system Tribolium castaneum; conditions: T. castaneum membrane extracts; competition with purified 3741 isoform
Method: as §3, §4, §5

[5] = target: PA1b binding protein on membrane extracts; conditions: ref Gressent et al (2003), cited from earlier work
Excerpt: Table 1. Affinity (Kd) and relative abundance (Bmax) of the PA1b binding protein on membrane extracts from different insect species and strains. | column: Kd (nM); Bmax (pmol/mg of protein) || Data obtained from competition experiments, using the purified […] isoform as competitor, are shown in Table 1. PA1b binding activity was present in all insect species, except for the resistant weevil strains and the pea specific pest Bruchus pisorum, regardless of the sensitivity or insensitivity of these insects to PA1b toxicity, as evaluated from our insect bioassays. […] The relative abundance of the binding sites was also slight ...

[6] = system: midgut extracts from sensitive or resistant S. oryzae; conditions: ref Delobel and Rahbé, personnal communication; cited from earlier work
Excerpt: Stating that the binding activity is widely present, while the toxicity is not, directly implies that other factors strongly influence the toxin toxicity. Pre-binding effects, such as toxin stability in the insect digestive tract, have been commonly described, either for bacterial toxins ([Keller et al. 1996]) or enzyme inhibitors ([Girard et al. 1998]). Although the structural features of PA1b, such as its cystine-knot core ([Jouvensal et al. 2003]), are known to confer high thermal, chemical and proteolytic stability ([Delobel et al. 1998]) the latter point was investigated using commercial ...

[7] = target: PA1b binding protein on membrane extracts; conditions: ref Gressent et al (2003), cited from earlier work; remark: listed apart in the source
Excerpt: Table 1. Affinity (Kd) and relative abundance (Bmax) of the PA1b binding protein on membrane extracts from different insect species and strains. | column: Kd (nM); Bmax (pmol/mg of protein)

E. coli = assay: Antimicrobial test, bacterial survival; format: cell-based; conditions: increasing toxin concentration up to 64 µg-ml^-1, 24 and 48 hours
Method: as §1

S. aureus = assay: Antimicrobial test, bacterial survival; format: cell-based; conditions: increasing toxin concentration up to 64 µg-ml^-1, 24 and 48 hours
Method: as §1

P. aeruginosa = assay: Antimicrobial test, bacterial survival; format: cell-based; conditions: increasing toxin concentration up to 64 µg-ml^-1, 24 and 48 hours
Method: as §1

E. faecium = assay: Antimicrobial test, bacterial survival; format: cell-based; conditions: increasing toxin concentration up to 64 µg-ml^-1, 24 and 48 hours
Method: as §1

With “ASCNGVCSPFEMPPCGTSACRCIPVGLVIGYCR NPSG (bicyclic or more) [PA1b, plant peptide of 37 amino acids purified from pea (Pisum sativum) seeds; entomotoxic cystine-knot peptide with three disulfide bonds]” the “effect on fungal growth” value (C. glabrata) was “no effect was detected”, the “effect on fungal growth” value (C. albicans) was “no effect was detected” and the “effect on fungal growth” value (A. famigatus) was “no effect was detected”. For the same sequence, the “growth and development from eggs to adults” value (Trichogramma pretiosum) was “normal growth”, the effects on adults (Tribolium castaneum) was “no effects were detectable” and the survival of adults (Tribolium castaneum) was “all insects survived”. The Kd [1] was 39 nM, the Kd / binding [2] was “no binding detectable” and the Kd [3] was 20 nM. For the same sequence, the Kd [4] was 11 nM, the Kd / binding ([5]; S. oryzae resistant strains Mex1, GV, China, ISOR3, membrane extracts) was “no binding detectable” and the Kd ([5]; S. oryzae strains WAA42, Benin, Bouriz, membrane extracts) was 2 to 4.5 nM. The “activity of midgut extracts on PA1b” value [6] was “do not show any activities on PA1b”, the Kd ([7]; S. granarius Brayard membrane extracts) was 6.3 nM and the Kd ([7]; S. zeamais Ls membrane extracts) was 9 nM. For the same sequence, the “effect on bacterial survival” value (E. coli) was “no effect was detected”, the “effect on bacterial survival” value (S. aureus) was “no effect was detected” and the “effect on bacterial survival” value (P. aeruginosa) was “no effect was detected”. For the same sequence, the “effect on bacterial survival” value (E. faecium) was “no effect was detected”.

Reference: article PMC2999418, “Biological Activity and Binding Site Characteristics of the PA1b Entomotoxin on Insects from Different Orders” (Journal of Insect Science, 2007)
